The text below walks through data of publication PMC9973354 (mBio, 2022).

The target of one experiment is T1, FpvB R648C (Pseudomonas aeruginosa, UniProt A0A0H2ZFZ5, R648C).
T1 sequence (A0A0H2ZFZ5 23-802 R648C): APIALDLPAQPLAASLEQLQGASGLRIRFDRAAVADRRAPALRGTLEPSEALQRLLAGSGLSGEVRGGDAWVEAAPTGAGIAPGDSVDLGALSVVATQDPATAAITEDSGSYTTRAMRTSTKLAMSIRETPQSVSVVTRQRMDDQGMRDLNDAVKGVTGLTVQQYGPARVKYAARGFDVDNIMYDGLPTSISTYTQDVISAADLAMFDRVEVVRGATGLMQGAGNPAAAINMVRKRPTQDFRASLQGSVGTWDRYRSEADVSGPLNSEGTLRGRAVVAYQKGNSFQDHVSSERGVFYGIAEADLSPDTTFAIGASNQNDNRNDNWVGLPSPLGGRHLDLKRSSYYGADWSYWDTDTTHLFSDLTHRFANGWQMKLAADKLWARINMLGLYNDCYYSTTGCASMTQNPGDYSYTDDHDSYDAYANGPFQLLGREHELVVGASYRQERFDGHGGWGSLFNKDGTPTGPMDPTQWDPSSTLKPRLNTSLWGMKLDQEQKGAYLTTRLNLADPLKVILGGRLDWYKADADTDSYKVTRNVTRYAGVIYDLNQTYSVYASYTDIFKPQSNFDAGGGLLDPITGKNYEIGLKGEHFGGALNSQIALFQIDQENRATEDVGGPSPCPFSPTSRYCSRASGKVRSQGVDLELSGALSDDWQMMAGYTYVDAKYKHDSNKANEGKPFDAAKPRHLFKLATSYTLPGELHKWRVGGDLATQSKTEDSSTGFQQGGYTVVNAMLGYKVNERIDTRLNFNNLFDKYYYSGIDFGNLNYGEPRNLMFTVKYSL
Nature of the experiment: Whole-cell fluorescence quenching, FpvB R648C in ΔfpvA ΔfpvB. Type of experiment: binding. The text has this:
To determine the affinity of the siderophores for FpvA and FpvB, we adapted the method from Chakravorty et al. to generate a whole-cell sensor where fluorescence quenching serves as an indicator of ligand interaction ([31]). Siderophore binding triggers conformational changes at the extracellular loops of the TBDT (Fig. 3A). Cys substitutions were introduced at the loops and labeled with a fluorescent maleimide dye. When a ligand binds the transporter, the loops fold inward toward the lumen of the barrel, and changes in the chemical environment surrounding the fluorophore lead to quenching ([31], [32]). Fluorescence recovery occurs once the siderophore is taken up and the loop returns to its original conformation.
Cells were cultured overnight in LB with carbenicillin (200 μg/mL) at 37°C with shaking at 200 rpm. Cells were subcultured (1:200 dilution) in 10:90 plus 2% arabinose for 4 h without carbenicillin at 37°C with shaking at 200 rpm. […] Excess dye was quenched with 1 mM dithiothreitol (DTT) (Sigma) to stop the reaction. Cells were washed 3× with PBS. For fluorescence recovery assays, cells were incubated with 1× PBS plus 0.4% glucose at 37°C with shaking at 200 rpm. Glucose was prepared as a 20% stock (wt/vol) in 1× PBS and filter sterilized. Cells were spun down and washed 3× with 1× PBS and resuspended in 1× PBS for quenching assays and 1× PBS plus 0.4% glucose for fluorescence recovery assays.
For fluorescence quenching and recovery assays, cells were diluted to an OD600 of 0.1 for both types of assays, and 148 μL was added into wells of a 96-well black plate (Corning). Fluorescence was recorded for 5 min at 1-min intervals at 37°C (BioTek Neo; excitation, 494 nm; emission, 520 nm). After 5 min, 2 μL of each serial dilution for ferrioxamine-Fe^3+, ferrichrome-Fe^3+, and pyoverdine-Fe^3+ or DMSO for vehicle controls was added to each well. Fluorescence was recorded immediately for quenching assays and for 1 h at 1-min intervals for fluorescence recovery assays. Background fluorescence was subtracted from all fluorescence readings and 1-F/F0 was used to calculate the degree of quenching, where F0 is the initial fluorescence. Kd was calculated using GraphPad Prism using a one-site specific binding model or a two-site model. For fluorescence recovery assays, background was subtracted from all fluorescence readings and F/F0 expressed as a percent of control was plotted versus time.

Experiment [1] has as its system PA14 ΔfpvA ΔfpvB ΔfiuA ΔfoxA pHERD20T-fpvB R191A. Briefly: Growth of quadruple mutant expressing FpvB R191A. Type of experiment: cell-based, Pseudomonas aeruginosa. The following applies: 10:90 + 2% arabinose. Here is the method:
Site-directed mutagenesis was used to confirm the docking predictions and to define the molecular determinants for ligand uptake through FpvB (Fig. 4C). We generated 17 single amino acid substitutions in FpvB and expressed each of them in trans in the quadruple ΔfpvA ΔfpvB ΔfiuA ΔfoxA mutant. Their ability to complement growth of the mutant in the presence of ferrichrome and ferrioxamine B and to restore TS susceptibility was assessed. […] The mutant transporters were tagged with a C-terminal FLAG tag to evaluate expression levels. FLAG-tagged FpvB mutants had WT levels of expression except for Y216T and W347V, which were expressed at 140% and 25% of WT, respectively.
The ΔfpvA ΔfpvB ΔfiuA ΔfoxA mutant was complemented with WT fpvA, fpvB, fiuA, and foxA in trans as controls (Fig. 4E).
MIC assays were conducted as previously described ([13], [14]). Overnight cultures were grown in LB from a glycerol stock at 37°C with shaking (200 rpm). Subcultures in 10:90 (1:100 dilution) were cultured for 4 h. Cells were adjusted to an optical density at 600 nm (OD600) of 0.1/500 in 10:90. All compounds were serially diluted 2-fold in dimethyl sulfoxide (DMSO) or H2O at 75× the final concentration. […] The next day, the OD600 was determined with a plate reader (Thermo Scientific) and normalized to percent of growth of the vehicle control after subtracting the OD600 from blank media.

Starred links: 1 amine or outer side, 2 acyl side, 3 side chain; linkers in the order of their positions; H or OH if unused. Positions of bridges follow the written chain, without caps; N, C: chain ends. Non-standard residues stand in square brackets, D forms with d. Residues, ends and D or L forms follow the SMILES beside them. ξ: configuration not given here. X1 = O=C([C@@H]1CCN=C2C(N[*:1])=Cc3cc(O)c(O)cc3N21)[*:2]; ξOrn(N(OH)CHO) = NC(CCCN(O)C=O)C(=O)O; Suc = O=C(CCC(=O)[*:2])[*:1]; ξK = NCCCCC(N)C(=O)O; ξS = NC(CO)C(=O)O

Regarding `NCCCCC(NC(=O)C(CO)NC(=O)[C@@H]1CCN=C2C(NC(=O)CCC(=O)O)=Cc3cc(O)c(O)cc3N21)C(=O)NCC(=O)NC(CCCN(O)C=O)C(=O)NC1CCCCNC(=O)C(CO)NC(=O)C(CCCN(O)C=O)NC1=O` (stereo partly drawn) [pyoverdine] (Suc-[X1][ξS][ξK]G[ξOrn(N(OH)CHO)][ξK][ξOrn(N(OH)CHO)][ξS]; lactam 6-C), at FpvB R648C (greater than ferrichrome), the “Kd for FpvB relative to ferrichrome” value was 200 fold. The “Kd for FpvB relative to ferrioxamine B” value on FpvB R648C (greater than ferrioxamine B) is 20 fold.
For `CC(=O)N(O)CCCCCNC(=O)CCC(=O)N(O)CCCCCNC(=O)CCC(=O)N(O)CCCCCN` [ferrioxamine B], the “growth in the presence of siderophore” value in experiment [1] is given as “prevented growth”.
